Counter-ions that a name gives are not always drawn. Like-named read-outs stand apart in the source and are kept apart here.
Columns and labels:
[1] = biological target: T1, Nav1.6 (Homo sapiens (Human), UniProt Q9UQD0); assay: Electrophysiological Assay (EP, patch voltage clamp), Nav1.6; format: cell-based; conditions: HEK-293 cells stably expressing the channel
Excerpt: Patch voltage clamp electrophysiology allows for the direct measurement and quantification of block of voltage-gated sodium channels (Nav's), and allows the determination of the time- and voltage-dependence of block which has been interpreted as differential binding to the resting, open, and inactivated states of the sodium channel (Hille, B., Journal of General Physiology (1977), 69: 497-515).
Nav1.1, Nav1.5 and Nav1.6 cDNAs (NM_001165964 (SCN1A), NM_000335 (SCN5A) and NM_014191 (SCN8A), respectively) were stably expressed in HEK-293 cells.
Sodium currents were measured using the patch clamp technique in the whole-cell configuration using either a PatchXpress automated voltage clamp or manually using an Axopatch 200B (Axon Instruments) or Model 2400 (A-M systems) amplifier. The manual voltage clamp protocol was as follows: Borosilicate glass micropipettes were fire-polished to a tip diameter yielding a resistance of 2-4 Mohms in the working solutions. […] In some studies, the external sodium was reduced by equimolar replacement with choline. Osmolarity in the CsF internal and NaCl external solutions was adjusted to 300 mOsm/kg and 310 mOsm/kg with glucose, respectively. All recordings were performed at ambient temperature in a bath chamber with a volume of 150 μL. Control sodium currents were measured in 0.5% DMSO. Controls and representative compounds of the invention were applied to the recording chamber through a 4-pinch or 8-pinch valve bath perfusion system manufactured by ALA Scientific Instruments.
Currents were recorded at 40 kHz sampling frequency, filtered at […], and stored using a Digidata-1322A analogue/digital interface with the pClamp software (Axon Instruments). Series resistance compensation was applied (60-80%). […] All statistics in this study are given as mean±SD.
The membrane potential was maintained at a voltage where inactivation of the channel is complete. The voltage is then stepped back to a very negative (Vhold=−150 mV) voltage for 20 ms and then a test pulse is applied to quantify the compound block. The 20 ms brief repolarization was long enough for compound-free channels to completely recover from fast inactivation, but the compound-bound channels recovered more slowly such that negligible recovery could occur during this interval. The percent decrease in sodium current following wash-on of compound was taken as the percent block of sodium channels.

[2] = biological target: Nav1.1 (Homo sapiens (Human), UniProt P35498); assay: Sodium Influx Assay (Flux), Nav1.1; format: cell-based; conditions: Trex HEK293 cells, ANG2 dye, inactivated state
[3] = biological target: T1, Nav1.6; assay: Sodium Influx Assay (Flux), Nav1.6; format: cell-based; conditions: Trex HEK293 cells, ANG2 dye, inactivated state
[4] = biological target: T2, Nav1.5 (Homo sapiens (Human), UniProt Q14524); assay: Sodium Influx Assay (Flux), Nav1.5
T2 sequence (Q14524 other isoform, or with tags, fused parts or gaps): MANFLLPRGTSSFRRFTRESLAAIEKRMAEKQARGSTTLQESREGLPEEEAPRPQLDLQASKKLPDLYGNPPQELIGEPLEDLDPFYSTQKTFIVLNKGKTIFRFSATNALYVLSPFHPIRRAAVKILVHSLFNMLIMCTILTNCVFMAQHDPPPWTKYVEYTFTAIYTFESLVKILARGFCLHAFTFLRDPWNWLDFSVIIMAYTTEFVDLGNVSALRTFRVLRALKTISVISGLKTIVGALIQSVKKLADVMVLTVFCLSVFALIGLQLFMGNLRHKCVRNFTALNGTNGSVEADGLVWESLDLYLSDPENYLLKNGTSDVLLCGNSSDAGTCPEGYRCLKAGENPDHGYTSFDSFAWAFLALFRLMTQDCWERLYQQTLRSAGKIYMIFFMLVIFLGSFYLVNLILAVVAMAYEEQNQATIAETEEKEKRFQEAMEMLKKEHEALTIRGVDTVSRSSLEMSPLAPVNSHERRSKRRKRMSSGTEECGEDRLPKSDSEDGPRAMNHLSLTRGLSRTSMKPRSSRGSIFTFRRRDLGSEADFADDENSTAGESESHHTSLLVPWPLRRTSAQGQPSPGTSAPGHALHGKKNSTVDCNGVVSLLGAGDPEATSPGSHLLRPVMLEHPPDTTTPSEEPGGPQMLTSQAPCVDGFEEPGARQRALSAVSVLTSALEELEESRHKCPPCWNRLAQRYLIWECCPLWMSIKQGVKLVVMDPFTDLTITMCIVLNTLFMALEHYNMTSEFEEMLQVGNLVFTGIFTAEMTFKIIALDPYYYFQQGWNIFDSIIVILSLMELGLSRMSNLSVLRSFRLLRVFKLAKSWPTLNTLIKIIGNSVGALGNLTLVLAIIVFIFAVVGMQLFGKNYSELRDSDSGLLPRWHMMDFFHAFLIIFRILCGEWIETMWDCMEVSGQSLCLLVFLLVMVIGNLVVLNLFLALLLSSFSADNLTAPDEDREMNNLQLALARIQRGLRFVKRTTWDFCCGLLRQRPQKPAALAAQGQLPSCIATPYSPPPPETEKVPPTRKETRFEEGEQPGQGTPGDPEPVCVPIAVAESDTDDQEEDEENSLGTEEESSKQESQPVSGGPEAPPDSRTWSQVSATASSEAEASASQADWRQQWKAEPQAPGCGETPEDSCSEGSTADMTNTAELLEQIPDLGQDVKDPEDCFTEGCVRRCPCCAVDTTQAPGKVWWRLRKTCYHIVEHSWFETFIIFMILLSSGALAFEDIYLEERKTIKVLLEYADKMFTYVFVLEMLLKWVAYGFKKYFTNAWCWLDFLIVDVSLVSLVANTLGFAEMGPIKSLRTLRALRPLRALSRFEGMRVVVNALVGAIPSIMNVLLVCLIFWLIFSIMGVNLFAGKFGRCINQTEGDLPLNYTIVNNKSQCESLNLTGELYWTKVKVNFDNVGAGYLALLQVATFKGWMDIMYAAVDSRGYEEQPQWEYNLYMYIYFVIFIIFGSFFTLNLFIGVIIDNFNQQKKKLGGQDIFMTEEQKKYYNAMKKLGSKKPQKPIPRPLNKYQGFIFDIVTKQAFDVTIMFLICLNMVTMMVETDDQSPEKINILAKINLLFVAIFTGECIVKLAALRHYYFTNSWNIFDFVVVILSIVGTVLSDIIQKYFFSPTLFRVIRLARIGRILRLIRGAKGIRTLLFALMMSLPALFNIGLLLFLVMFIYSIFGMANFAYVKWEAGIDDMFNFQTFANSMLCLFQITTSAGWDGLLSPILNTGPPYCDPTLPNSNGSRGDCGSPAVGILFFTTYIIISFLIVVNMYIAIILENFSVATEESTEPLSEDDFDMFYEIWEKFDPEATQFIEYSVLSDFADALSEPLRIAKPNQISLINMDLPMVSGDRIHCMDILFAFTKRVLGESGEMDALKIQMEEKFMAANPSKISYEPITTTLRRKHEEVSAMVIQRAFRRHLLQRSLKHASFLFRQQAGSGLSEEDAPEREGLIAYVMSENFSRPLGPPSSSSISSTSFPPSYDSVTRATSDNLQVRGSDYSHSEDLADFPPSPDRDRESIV

[5] = biological target: T2, Nav1.5
[6] = read-out: Flux NaV1.5 IC50, sodium influx assay, Trex HEK293 cells, ANG2 dye, inactivated state

T1 sequence (Q9UQD0 whole entry): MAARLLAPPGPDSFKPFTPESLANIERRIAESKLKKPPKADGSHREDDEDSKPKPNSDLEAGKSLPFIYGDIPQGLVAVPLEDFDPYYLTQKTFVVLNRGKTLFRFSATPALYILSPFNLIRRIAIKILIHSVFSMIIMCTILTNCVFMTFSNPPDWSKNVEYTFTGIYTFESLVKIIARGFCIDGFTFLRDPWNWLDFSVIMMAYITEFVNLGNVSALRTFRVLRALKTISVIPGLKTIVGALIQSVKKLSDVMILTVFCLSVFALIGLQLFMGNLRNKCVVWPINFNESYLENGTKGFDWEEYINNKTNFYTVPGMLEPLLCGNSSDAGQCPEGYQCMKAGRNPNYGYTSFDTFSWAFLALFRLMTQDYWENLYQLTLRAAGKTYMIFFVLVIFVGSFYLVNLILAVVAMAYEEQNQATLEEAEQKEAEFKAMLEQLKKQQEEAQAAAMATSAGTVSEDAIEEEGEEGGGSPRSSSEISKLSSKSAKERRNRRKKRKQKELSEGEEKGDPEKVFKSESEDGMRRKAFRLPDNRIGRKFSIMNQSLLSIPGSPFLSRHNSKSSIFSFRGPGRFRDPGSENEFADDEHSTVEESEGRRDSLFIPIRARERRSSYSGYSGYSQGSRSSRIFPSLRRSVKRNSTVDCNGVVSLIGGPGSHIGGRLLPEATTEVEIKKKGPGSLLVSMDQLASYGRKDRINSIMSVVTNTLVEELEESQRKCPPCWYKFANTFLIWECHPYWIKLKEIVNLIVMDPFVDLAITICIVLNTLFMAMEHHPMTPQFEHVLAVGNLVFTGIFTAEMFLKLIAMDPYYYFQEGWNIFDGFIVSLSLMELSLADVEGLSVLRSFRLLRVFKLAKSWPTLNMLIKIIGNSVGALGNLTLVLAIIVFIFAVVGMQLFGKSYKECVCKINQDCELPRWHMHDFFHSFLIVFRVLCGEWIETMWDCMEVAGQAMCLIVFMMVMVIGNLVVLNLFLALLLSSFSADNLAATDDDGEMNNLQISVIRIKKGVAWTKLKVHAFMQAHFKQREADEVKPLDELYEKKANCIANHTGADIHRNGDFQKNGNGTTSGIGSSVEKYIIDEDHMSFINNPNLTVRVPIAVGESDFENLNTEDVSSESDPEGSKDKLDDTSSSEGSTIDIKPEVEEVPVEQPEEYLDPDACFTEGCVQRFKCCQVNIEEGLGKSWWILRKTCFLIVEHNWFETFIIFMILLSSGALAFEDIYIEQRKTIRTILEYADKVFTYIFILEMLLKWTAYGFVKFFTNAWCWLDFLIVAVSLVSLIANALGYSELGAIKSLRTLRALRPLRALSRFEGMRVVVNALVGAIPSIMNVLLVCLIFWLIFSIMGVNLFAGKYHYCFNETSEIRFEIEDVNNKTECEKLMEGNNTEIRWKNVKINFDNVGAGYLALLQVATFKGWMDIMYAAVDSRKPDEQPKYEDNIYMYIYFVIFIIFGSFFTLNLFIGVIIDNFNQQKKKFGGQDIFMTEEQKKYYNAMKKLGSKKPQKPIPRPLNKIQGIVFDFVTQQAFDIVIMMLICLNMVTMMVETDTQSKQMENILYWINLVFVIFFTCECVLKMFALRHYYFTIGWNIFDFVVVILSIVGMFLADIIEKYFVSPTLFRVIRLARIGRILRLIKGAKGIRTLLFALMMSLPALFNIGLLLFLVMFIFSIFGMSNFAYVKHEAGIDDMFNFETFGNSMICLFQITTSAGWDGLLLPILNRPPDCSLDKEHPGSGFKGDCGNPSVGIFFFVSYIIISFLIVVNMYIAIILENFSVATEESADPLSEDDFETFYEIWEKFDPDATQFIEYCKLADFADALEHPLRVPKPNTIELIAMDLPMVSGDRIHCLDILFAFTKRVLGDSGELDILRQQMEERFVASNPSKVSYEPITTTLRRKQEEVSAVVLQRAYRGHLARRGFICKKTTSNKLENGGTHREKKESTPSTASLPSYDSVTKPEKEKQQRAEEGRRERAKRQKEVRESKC

Compound | IC50 [1] [µM] | IC50 [2] [µM] | IC50 [3] [µM] | IC50 [4, 6] [µM] | IC50 [5] [µM] | IC50 [4] [µM]
Cc1nc(S(=O)(=O)Nc2cscn2)ccc1NCc1c(F)cccc1CN1CCC1 [Example 4, 5-((2-(azetidin-1-ylmethyl)-6-fluorobenzyl)amino)-6-methyl-N-(thiazol-4-yl)pyridine-2-sulfonamide] | 0.026 | 28.8 | 0.111 | 28.2 | – | –
Cc1nc(S(=O)(=O)Nc2cscn2)ccc1NCc1c(F)cccc1CN(C)C(C)(C)C [Example 6, 5-((2-((tert-butyl(methyl)amino)methyl)-6-fluorobenzyl)amino)-6-methyl-N-(thiazol-4-yl)pyridine-2-sulfonamide formic acid salt] | 0.069 | 30 | 0.398 | 30 | – | –
Cc1nc(S(=O)(=O)Nc2ccsn2)ccc1NCc1c(F)cccc1CN(C)C(C)(C)C [Example 19, 5-((2-((tert-butyl(methyl)amino)methyl)-6-fluorobenzyl)amino)-N-(isothiazol-3-yl)-6-methylpyridine-2-sulfonamide trifluoroacetic acid salt] | 0.038 | 30 | 0.221 | 30 | – | –
Cc1nc(S(=O)(=O)Nc2ccsn2)ccc1NCc1c(F)cccc1CN1CCC1 [Example 20, 5-((2-(azetidin-1-ylmethyl)-6-fluorobenzyl)amino)-N-(isothiazol-3-yl)-6-methylpyridine-2-sulfonamide trifluoroacetic acid salt] | 0.023 | 30 | 0.067 | 25 | – | –
Cc1nc(S(=O)(=O)Nc2cscn2)ccc1NCc1c(F)ccc(F)c1CN(C)C(C)(C)C [Example 21, 5-((2-((tert-butyl(methyl)amino)methyl)-3,6-difluorobenzyl)amino)-6-methyl-N-(thiazol-4-yl)pyridine-2-sulfonamide trifluoroacetic acid salt] | 0.043 | 30 | 0.102 | 30 | – | –
Cc1nc(S(=O)(=O)Nc2cscn2)ccc1NCc1c(F)cccc1CN1C2CCC1CC2 [Example 25, 5-((2-((7-azabicyclo[2.2.1]heptan-7-yl)methyl)-6-fluorobenzyl)amino)-6-methyl-N-(thiazol-4-yl)pyridine-2-sulfonamide trifluoroacetic acid salt] | – | 30 | 0.154 | – | 30 | –
Cc1nc(S(=O)(=O)Nc2cscn2)ccc1NCc1c(F)cccc1CN(C)C(C)C [Example 29, 5-((2-fluoro-6-((isopropyl(methyl)amino)methyl)benzyl)amino)-6-methyl-N-(thiazol-4-yl)pyridine-2-sulfonamide trifluoroacetic acid salt] | 0.039 | ≥ 30 | 0.082 | – | – | ≥ 30
Cc1nc(S(=O)(=O)Nc2cscn2)c(F)cc1NCc1c(F)cccc1CN1C2CCC1CC2 [Example 33, 5-((2-((azabicyclo[2.2.1]heptan-7-yl)methyl)-6-fluorobenzyl)amino)-3-fluoro-6-methyl-N-(thiazol-4-yl)pyridine-2-sulfonamide trifluoroacetic acid salt] | – | – | – | – | 30 | –
Cc1nc(S(=O)(=O)Nc2cscn2)c(F)cc1NCc1cccc(C(F)(F)F)c1CN1C2CCC1CC2 [Example 37, 5-((2-((7-azabicyclo[2.2.1]heptan-7-yl)methyl)-3-(trifluoromethyl)benzyl)amino)-3-fluoro-6-methyl-N-(thiazol-4-yl)pyridine-2-sulfonamide trifluoroacetic acid salt] | – | 8.7 | 5.92 | – | – | ≥ 30
Cc1c(NCc2c(F)cccc2CN(C)C(C)C)cnc(S(=O)(=O)Nc2cccc(F)n2)c1F [Example 45, 3-fluoro-5-((2-fluoro-6-((isopropyl(methyl)amino)methyl)benzyl)amino)-N-(6-fluoropyridin-2-yl)-4-methylpyridine-2-sulfonamide] | – | 30 | 1.93 | 30 | – | –
Cc1nc(S(=O)(=O)Nc2ccon2)c(F)cc1NCc1ccccc1CN(C)C(C)(C)C [Example 46, 5-((2-((tert-butyl(methyl)amino)methyl)benzyl)amino)-3-fluoro-N-(isoxazol-3-yl)-6-methylpyridine-2-sulfonamide trifluoroacetic acid salt] | – | ≥ 30 | 1.78 | – | – | ≥ 30
O=S(=O)(Nc1cscn1)c1ccc(NCc2c(F)cccc2CN2C3CCC2CC3)c(C(F)(F)F)n1 [Example 47, 5-((2-((7-azabicyclo[2.2.1]heptan-7-yl)methyl)-6-fluorobenzyl)amino)-N-(thiazol-4-yl)-6-(trifluoromethyl)pyridine-2-sulfonamide trifluoroacetic acid salt] | – | 13.6 | 0.021 | – | 30 | –
Cc1nc(S(=O)(=O)Nc2cscn2)c(F)cc1NCc1c(F)cccc1CN(C)C(C)(C)C [Example 48, 5-((2-((tert-butyl(methyl)amino)-methyl)-6-fluorobenzyl)amino)-3-fluoro-6-methyl-N-(thiazol-4-yl)pyridine-2-sulfonamide] | 0.017 | 30 | 0.084 | 30 | – | –

Further molecules by falling IC50 [2], results first:

IC50 [1] [µM] | IC50 [2] [µM] | IC50 [3] [µM] | Compound | IC50 [4, 6] [µM] | IC50 [5] [µM] | IC50 [4] [µM]
– | 20.2 | 0.171 | O=S(=O)(Nc1cscn1)c1ccc(NCc2c(F)ccc(F)c2CN2CCCC2)n2ccnc12 [Example 44, 5-((3,6-difluoro-2-(pyrrolidin-1-ylmethyl)benzyl)amino)-N-(thiazol-4-yl)imidazo[1,2-a]pyridine-8-sulfonamide trifluoroacetic acid salt] | 8.85 | – | –
– | 11.1 | 0.056 | Cc1nc(S(=O)(=O)Nc2cccc(F)n2)ccc1NCc1c(F)cccc1CN1CCCC1 [Example 41, 5-((2-fluoro-6-(pyrrolidin-1-ylmethyl)benzyl)amino)-N-(6-fluoropyridin-2-yl)-6-methylpyridine-2-sulfonamide trifluoroacetic acid salt] | 30 | – | –
– | 8.21 | 2.11 | Cc1cc(S(=O)(=O)Nc2cccc(F)n2)sc1NCc1c(F)cccc1CN1CCCC1 [Example 43, 5-((2-fluoro-6-(pyrrolidin-1-ylmethyl)benzyl)amino)-N-(6-fluoropyridin-2-yl)-4-methylthiophene-2-sulfonamide trifluoroacetic acid salt] | 10.3 | – | –
– | 6.29 | 4.47 | O=S(=O)(Nc1cccc(F)n1)c1cnc(NCc2c(F)cccc2CN2CCCC2)c(Cl)c1 [Example 42, 5-chloro-6-((2-fluoro-6-(pyrrolidin-1-ylmethyl)benzyl)amino)-N-(6-fluoropyridin-2-yl)pyridine-3-sulfonamide trifluoroacetic acid salt] | 9.11 | – | –
– | 5.54 | 2.23 | Cc1nc(NCc2c(F)cccc2CN2CCCC2)ccc1S(=O)(=O)Nc1cccc(F)n1 [Example 40, 6-((2-fluoro-6-(pyrrolidin-1-ylmethyl)benzyl)amino)-N-(6-fluoropyridin-2-yl)-2-methylpyridine-3-sulfonamide trifluoroacetic acid salt] | 3.27 | – | –
– | 3.75 | 0.078 | CN(Cc1cccc(F)c1CNc1cc(F)c(S(=O)(=O)Nc2cscn2)nc1C1CC1)C(C)(C)C [Example 49, 5-((2-((tert-butyl(methyl)amino)methyl)-6-fluorobenzyl)amino)-6-cyclopropyl-3-fluoro-N-(thiazol-4-yl)pyridine-2-sulfonamide] | 7.5 | – | –

From patent publication US10981905B2, “Heteroaryl-substituted sulfonamide compounds and their use as therapeutic agents” (Xenon Pharmaceuticals Inc., priority 2018, dated 2021)
